Measured values taken from PubChem BioAssay AID588449 (Broad Institute, 2011).
Active and inactive are the calls of the source.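 How the source made its calls: active means inhibitors whose fitted AC50 is no more than ten times their highest valid tested dose; inconclusive means flat fit with 30 to 70% inhibition, or poor fit; inactive means the rest.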

Molecular target: Dual specificity tyrosine-phosphorylation-regulated kinase 1A (Rattus norvegicus) (UniProt Q63470)
Test: Dyrk1A kinase inhibitors, NFAT signaling, dose response, biochemical, cherry-pick, plate reader, 2124-03 (AID 588449)
Conditions: recombinant Dyrk1A, ADP-Glo luminescence, NFATc1 peptide; for activity change, negative = inhibition: at 12 µM (top of the series)

| Structure (SMILES) | AC50 | activity change, negative = inhibition |
| --- | --- | --- |
| c1cncc(CNc2cc(-c3ccc4c(c3)OCO4)ncn2)c1 | 1970 nM | – |
| COc1ccc(-c2nccc(NCc3ccc(C)cc3)n2)cc1 | < 5.6 nM | – |
| CN(Cc1nccs1)c1ncnc2ccc(-c3ccc4c(c3)OCO4)cc12 | < 5.6 nM | – |
| Clc1cc(Cl)cc(CNc2ncncc2-c2ccc3c(c2)OCO3)c1 | 1060 nM | – |
| c1cncc(CNc2nccc(-c3ccc4c(c3)OCO4)n2)c1 | 48 nM | – |
| c1nc(NCC2CCCOC2)c2cc(-c3ccc4c(c3)OCO4)ccc2n1 (stereo not given) | 6.72 nM | – |
| CN(C)c1ccc(-c2nccc(NCc3cccs3)n2)cc1 | 5460 nM | – |
| CCCNc1ncnc2ccc(-c3ccc4c(c3)OCO4)cc12 | 36.5 nM | – |
| Cc1nc(CN(C)c2ncnc3ccc(-c4ccc5c(c4)OCO5)cc23)cs1 | 20.8 nM | – |
| FC(F)(F)c1cccc(Nc2nccc(-c3ccc4c(c3)OCO4)n2)c1 | < 5.6 nM | – |
| c1coc(CCNc2ncnc3ccc(-c4ccc5c(c4)OCO5)cc23)c1 | 74.8 nM | – |
| Clc1ccc(Nc2nccc(-c3ccc4c(c3)OCO4)n2)cc1 | 228 nM | – |
| CCOC(=O)c1ccc(-c2ccc3ncnc(N(C)Cc4sccc4C)c3c2)o1 | 486 nM | – |
| O=[N+]([O-])c1cc(Nc2nccc(-c3ccc4c(c3)OCO4)n2)cc(C(F)(F)F)c1 | 2850 nM | – |
| Cc1ccc(CN(C)c2ncnc3ccc(-c4ccc5c(c4)OCO5)cc23)o1 | 10.4 nM | – |
| c1cncc(CNc2nccc(-c3ccc4cn[nH]c4c3)n2)c1 | 217 nM | – |
| Cc1c(-c2ccnc(NCc3ccc(Cl)cc3)n2)sc(=O)n1C | 109 nM | – |
| Cn1ccc2cc(-c3ccc4ncnc(NCc5cccc(F)c5)c4c3)ccc21 | – | inactive |
| c1cc(-c2ccc3c(c2)OCO3)nc(Nc2ccc3c(c2)OCO3)n1 | < 5.6 nM | – |
| Brc1cc(Br)cc(CNc2nccc(-c3ccc4c(c3)OCO4)n2)c1 | 8.38 nM | – |
| Fc1c(-c2ccc3ncnc(NCc4cccs4)c3c2)ccc2c1OCO2 | 83.2 nM | – |
| CS(=O)(=O)CCNCc1ccc(-c2ccc3ncnc(Nc4ccc(OCc5cccc(F)c5)c(Cl)c4)c3c2)o1 | > 12000 nM (inactive) | – |
| CCN(Cc1cccs1)c1ncnc2ccc(-c3ccc4c(c3)OCO4)cc12 | 18 nM | – |
| Clc1ccc(CNc2nccc(-c3ccc4cn[nH]c4c3)n2)cc1Cl | 21.6 nM | – |
| Cc1ccc(CNc2ncnc3ccc(-c4ccoc4C)cc23)o1 | 2560 nM | – |
| c1csc(CNc2ncnc3ccc(-c4ccoc4)cc23)c1 | 326 nM | – |
| CN(Cc1cccs1)c1ncnc2ccc(-c3ccc4c(c3)OCO4)cc12 | 49.2 nM | – |
| Cc1ccsc1CN(C)c1ncnc2ccc(-c3ccc(CO)o3)cc12 | 905 nM | – |

| Structure (SMILES) | AC50 | activity change, negative = inhibition |
| --- | --- | --- |
| c1cncc(CNc2nccc(-c3ccc4[nH]ncc4c3)n2)c1 | 123 nM | – |
| c1cncc(CNc2ccnc(-c3ccc4[nH]ncc4c3)n2)c1 | 711 nM | – |
| Clc1ccc(CNc2cc(-c3ccc4c(c3)OCO4)ncn2)cc1 | 11300 nM | – |
| c1csc(CNc2ncnc3ccc(-c4ccc5c(c4)OCO5)cc23)n1 | – | inactive |
| Clc1ccc(CNc2ccnc(-c3ccc4[nH]ncc4c3)n2)cc1Cl | 19.1 nM | – |
| Clc1ccccc1-c1ccc2ncnc(NCc3ccc4c(c3)OCO4)c2c1 | 3160 nM | – |
| Cc1nc(CNc2ncnc3ccc(-c4ccc5c(c4)OCO5)cc23)cs1 | 168 nM | – |
| Cc1occc1CNc1ncnc2ccc(-c3ccc4c(c3)OCO4)cc12 | 121 nM | – |
| Cc1c(-c2ccnc(NCc3cccnc3)n2)sc(=O)n1C | 410 nM | – |
| c1nc(NCC2CCCC2)c2cc(-c3ccc4c(c3)OCO4)ccc2n1 | 14.6 nM | – |
| c1csc(CCNc2ncnc3ccc(-c4ccc5c(c4)OCO5)cc23)c1 | < 5.6 nM | – |
| Cc1noc(CN(C)c2ncnc3ccc(-c4ccc5c(c4)OCO5)cc23)n1 | 21.1 nM | – |
| c1cncc(CNc2ccnc(-c3ccc4cn[nH]c4c3)n2)c1 | 3540 nM | – |
| Cc1nc(CNc2ncnc3ccc(-c4ccoc4)cc23)cs1 | 907 nM | – |
| Clc1ccc(CNc2nccc(-c3ccc4c(c3)OCCO4)n2)cc1Cl | 19.8 nM | – |
| Cc1csc(CN(C)c2ncnc3ccc(-c4ccc5c(c4)OCO5)cc23)n1 | 1970 nM | – |
| Cn1ccc2cc(-c3ccc4ncnc(NCc5ccc6c(c5)OCO6)c4c3)ccc21 | – | inactive |
| c1nc(NCC2CCCO2)c2cc(-c3ccc4c(c3)OCO4)ccc2n1 (stereo not given) | < 5.6 nM | – |
| Clc1ccc(CNc2nccc(-c3ccc4c(c3)OCO4)n2)cc1Cl | 84.3 nM | – |
| Cc1ccsc1CN(C)c1ncnc2ccc(-c3ccoc3)cc12 | 60.9 nM | – |
| Clc1cc(Cl)cc(CNc2cc(-c3ccc4c(c3)OCO4)ncn2)c1 | 340 nM | – |
| Cc1cccc(CNc2ncnc3ccc(-c4cccc(Cl)c4)cc23)c1 | – | inactive |
| Cc1ccc(CNc2ncnc3ccc(-c4ccc5c(c4)OCO5)cc23)o1 | 62.5 nM | – |
| Clc1ccc(CNc2nccc(-c3ccc4[nH]ncc4c3)n2)cc1Cl | 114 nM | – |
| Cc1ccsc1CNc1ncnc2ccc(-c3ccc4c(c3)OCO4)cc12 | 7.9 nM | – |
| Brc1ccc(CNc2nccc(-c3ccc4c(c3)OCO4)n2)cc1Br | 209 nM | – |
| Clc1ccc(CNc2ncncc2-c2ccc3c(c2)OCO3)cc1 | 9670 nM | – |
